From patent US12637459B2, “Solid state forms of Lorecivivint” (TAPI CZECH INDUSTRIES S.R.O., priority 2020, dated 2026)

Tests used:
[1] = Polymorphic stability at up to 100% relative humidity at room temperature; type: physicochemical
[2] = Hygroscopicity of the crystalline form; type: physicochemical; conditions: solid state form

- time polymorphically stable [1]: at least 7 days
- hygroscopicity [2]: non-hygroscopic
Structure (SMILES): CC(C)CC(=O)Nc1cncc(-c2ccc3[nH]nc(-c4nc5c(-c6cccc(F)c6)cncc5[nH]4)c3c2)c1 [Form Q, N-[5-[3-[7-(3-fluorophenyl)-3H-imidazo[4,5-c]pyridin-2-yl]-1H-indazol-5-yl]pyridin-3-yl]-3-methylbutanamide]
